Source: US5393729A, “3-aryl-pyrone derivatives” (Bayer Aktiengesellschaft, priority 1992, dated 1995)

Tested on: Nippostrongylus
Assay: Nippostrongylus in vitro (acetylcholine esterase determination)
Parameters: species or system Nippostrongylus brasiliensis
Conditions: read-out: inhibition of the enzyme (full activity)
Protocol: Nippostrongylus are isolated from the small intestine of rats and washed with 0.9% of NaCl supplemented with 29 μg/ml sisomycin and 2 μg/ml of clotrimazole. The actual incubation of in each case 5 male and female Nippostrongylus is carried out in 1.0 ml of medium used for determining the activity of acetylcholine esterase. Enzyme determination is by the method of Rapson et al., 1987 (E. B. Rapson, D. C. Jenkins, A. S. Chilwan), Improved detection of anthelmintic activity in vitro screen utilizing adult Nippostrongylus brasiliensis. Parasitol. Res. 1987 73, 190 to 191.
The following key is used for the assessment: 3=full activity, 100% inhibition of the enzyme; 2=good activity, more than 75% inhibition; 1=poor activity, less than 50% inhibition.

Work on CCOC(=O)c1c(C)oc(=O)c(-c2c(C)cc(C)cc2C)c1O [Example 1] yielded an inhibition at 100 ppm of 100%.
